The supplement of paper PMC10307832

Key:
Experiment in all cases: relative viability (nuclei count vs DMSO), 5 days (fraction); higher = more cells survive
[1] = compound: C1=CC2=C(C=C(C(=C2N=C1)O)N=NC3=CC4=C(C=C3)C=C(C=C4)S(=O)(=O)O)S(=O)(=O)O + C[C@@H](Oc1cc(-c2cnn(C3CCNCC3)c2)cnc1N)c1c(Cl)ccc(F)c1Cl [Crizotinib] (partner 1 µM)
In short: (§1)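 Five library-drug doses in √10 steps were combined with a fixed anchor-drug dose, or a single drug was given alone, by pin tool to lung cancer cell lines in 1536-well plates the day after seeding. Nuclei were stained and counted after 5 days. Relative viability is the nuclei count in treated wells over that in vehicle wells, taken as the median of duplicate plates.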

[2] = compound: C1=CC2=C(C=C(C(=C2N=C1)O)N=NC3=CC4=C(C=C3)C=C(C=C4)S(=O)(=O)O)S(=O)(=O)O + CCNC(=O)c1noc(-c2cc(C(C)C)c(O)cc2O)c1-c1ccc(CN2CCOCC2)cc1 [Luminespib] (partner 0.01 µM)
In short: as §1

[3] = compound: C1=CC2=C(C=C(C(=C2N=C1)O)N=NC3=CC4=C(C=C3)C=C(C=C4)S(=O)(=O)O)S(=O)(=O)O + O=C(CCCCCCC(=O)Nc1ccccc1)NO [Vorinostat] (partner 1 µM)
In short: as §1

[4] = compound: C1=CC2=C(C=C(C(=C2N=C1)O)N=NC3=CC4=C(C=C3)C=C(C=C4)S(=O)(=O)O)S(=O)(=O)O + CC(C)C[C@H](NC(=O)[C@H](Cc1ccccc1)NC(=O)c1cnccn1)B(O)O [Bortezomib] (partner 0.002 µM)
In short: as §1

UMC-11
relative viability ([1]; first compound 0.08 µM): 0.818
relative viability ([1]; first compound 0.253 µM): 0.584
relative viability ([1]; first compound 0.8 µM): 0.491
relative viability ([1]; first compound 2.53 µM): 0.693
relative viability ([1]; first compound 8 µM): 0.717
relative viability ([2]; first compound 0.08 µM): 1.14
relative viability ([2]; first compound 0.253 µM): 1.04
relative viability ([2]; first compound 0.8 µM): 0.862
relative viability ([2]; first compound 2.53 µM): 0.992
relative viability ([2]; first compound 8 µM): 1.02
relative viability ([3]; first compound 0.08 µM): 0.462
relative viability ([3]; first compound 0.253 µM): 0.367
relative viability ([3]; first compound 0.8 µM): 0.475
relative viability ([3]; first compound 2.53 µM): 0.403
relative viability ([3]; first compound 8 µM): 0.392
relative viability ([4]; first compound 0.08 µM): 0.84
relative viability ([4]; first compound 0.253 µM): 0.783
relative viability ([4]; first compound 0.8 µM): 0.708
relative viability ([4]; first compound 2.53 µM): 0.633
relative viability ([4]; first compound 8 µM): 0.606
